Data as given in patent US20220062166A1, “Self-Gelling Solutions for Administration of Therapeutics to the Inner Ear” (Spiral Therapeutics, Inc., priority 2019, published 2022).

Columns and labels:
HEI-OC1 cells [1] = experiment: HEI-OC1 cell viability with CisPt; assay type: cell-based; details: CisPt 0 to 5 μg/mL
HEI-OC1 cells [2] = experiment: Release of mitochondrial cyt c in HEI-OC1 cells with CisPt (flow cytometry); assay type: cell-based; details: HEI-OC1 cells; after CisPt alone or pre-incubated with LPT99
Protocol: Flow cytometry was also used to characterize the effect of LPT99 in the release of mitochondrial cyt c in HEI-OC1 cells in vitro with CisPt prevention. Results
The effect of LPT99 on proliferation of non-apoptotic cells was studied. A549 cells were cultured in the presence of LPT99 for up to 6 days; the cell number was monitored by flow cytometry, and doubling time was calculated.

[3] = GLP auditory safety study in rats after single TT administration
Protocol: The study consisted of 10 groups of rats: 6 groups for toxicology (Groups 1 to 6, 20 males and 20 females per group), and 4 groups for toxicokinetics (Groups 7 to 10, 6 males and 6 females per group).
All animals were assessed weekly for body weights and qualitative food consumption. In addition, otoscopic evaluation of the dosing sites (tympanic membrane, Groups 1 to 6) and ABR testing for hearing function were performed at predosing; and on Days 1, 7, and/or 14. Animals in the toxicology groups (Groups 1 to 6) were sacrificed on Day 1 (10 males and 10 females per group) and Day 14 (the remaining 10 males and 10 females per group). At necropsy, terminal blood samples were tested for hematology, serum chemistry, and coagulation parameters. Gross observations were recorded, and selected organs were weighed. One ear per animal in Groups 1 to 5 was collected and processed for cytocochleogram assessment.

N.N.[Cl][Pt][Cl] [CisPt, cisplatin, reference compound]
HEI-OC1 cell viability IC50 of CisPt (HEI-OC1 cells [1]): 4.47 ± 1.94 µg/mL | release of mitochondrial cyt c (HEI-OC1 cells [2]): 28% ±6.6%

gentamicin [reference compound]
weight-normalized heart weights ([3]; Day 14, males, 400 mg/mL gentamicin vs saline controls, p≥0.05): increased weight-normalized heart weights | otoscopic scores (erythema, edema, wounds) of tympanic membranes ([3]; Days 1, 7, 14 vs control): increases in otoscopic scores
